The results in this text go back to paper PMC2830424, “The Anopheles gambiae Odorant Binding Protein 1 (AgamOBP1) Mediates Indole Recognition in the Antennae of Female Mosquitoes” (PLoS ONE, 2010).

For assay [1], the target named is T1, AgamOBP1 (Odorant Binding Protein 1) (Anopheles gambiae, UniProt Q8T6S0).
T1 sequence (Q8T6S0 20-144): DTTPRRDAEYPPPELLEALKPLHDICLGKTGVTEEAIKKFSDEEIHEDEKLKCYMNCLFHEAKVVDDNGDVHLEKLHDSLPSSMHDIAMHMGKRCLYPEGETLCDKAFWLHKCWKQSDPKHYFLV
In words: 3H-indole scintillation proximity (Ni-NTA FlashPlate) binding; confirmed by 1-NPN fluorescence displacement. Also on record: gene OBP-1; purified 6xHis tagged r-OBP1. From the text: 3H-indole scintillation proximity (Ni-NTA FlashPlate) binding; confirmed by 1-NPN fluorescence displacement on AgamOBP1 (Odorant Binding Protein 1) | Binding curve of ^3H indole to r-OBP1 in Ni-NTA FlashPlates.

In assay [2] the target is T1, AgamOBP1 (Odorant Binding Protein 1). In words: fluorescence displacement of 1-NPN (screening assay). Details: gene OBP-1; recombinant OBP1 (r-OBP1). From the text:
fluorescence displacement of 1-NPN (screening assay) on AgamOBP1 (Odorant Binding Protein 1) | 3-methyl indole (skatole) […] also bound to r-OBP1 but with an apparently lower affinity

For assay [3] the target is unchanged. Nature of the assay: fluorescent reporter dye of the displacement assay (no Kd reported). Details: gene OBP-1; recombinant OBP1 (r-OBP1).

Usually Kd stands for the free concentration of one partner at which half of the binding sites on the other are occupied at equilibrium, for simple one-to-one binding. Low readings indicate a tighter complex, high ones a looser complex.

Turning to `c1ccc2[nH]ccc2c1` [indole], the Kd in assay [1] came out at 2.3 µM.

For the compound `Cc1c[nH]c2ccccc12` [3-methyl indole], in assay [2], the “fluorescence displacement of 1-NPN (screening assay)” value was 3-methyl indole (skatole) [...] also bound to r-OBP1 but with an apparently lower affinity.

In the case of `c1ccc(Nc2cccc3ccccc23)cc1` [1-NPN, N-Phenyl-1-Naphthylamine], the “fluorescent reporter dye displacement” value in assay [3] is listed as “increasing concentrations of indole displaced more 1-NPN dye from the AgamOBP1 binding pocket”.
